Assay results reported in patent US9403791B1, “Coumarin derivatives for cancer therapy” (Wellesley College, priority 2013, dated 2016).

Key:
[1] = test system: pancreatic cancer cell line PANC-1; conditions: within 24 hours; cited from earlier work
PANC-1 cells [2] = assay: In vitro cytotoxicity assay (WST-8 cell viability), nutrient deprived media; type: cell-based; conditions: for CC50: Homo sapiens, PANC-1 cells, 24-hour incubation, WST-8 cell counting kit, nutrient deprived media (medium not restated at table), read-out: LC50 (the source's name)
Procedure: (§1) PANC-1 cells, ranging from passage numbers 30-36 and 40-45, were seeded in 96-well plates at a density of 2.5×10^4 cells per well and incubated in fresh Dulbecco's modified Eagle's medium (DMEM, Sigma Aldrich) at 37° C. and 5% CO2 for 24 hours. Cells were then washed with PBS (Sigma Aldrich) and then subjected to the addition of either DMEM or nutrient deprived media (absence of glucose, amino acid and serum). Serially diluted coumarin compounds were added to the cells followed by a 24-hour incubation at 37° C. and 5% CO2. Cell morphology was then observed under an inverted microscope. Cells were then washed with PBS, and fresh DMEM and 10% WST-8 cell counting kit solution (Dojindo Molecular Technologies) were added to each well. The cells were incubated for 3-hours at 37° C. and 5% CO2. Absorbance values were measured using a plate reader at 450 nm, and cell viability was calculated using the following equation % Cell viability=[{Abstest sample−Absblank}/{Abscontrol−Absblank}]*100. The cell viability of compounds 2, 3 and 4 is seen in FIG. 1a.
(§2) The assay detailed above was performed additional times and results were obtained. Briefly, PANC-1 cells, ranging from passage numbers 30-36 and 40-45, were seeded in 96-well plates at a density of 2.5×10^4 cells per well density and incubated in fresh Dulbecco's modified Eagle's medium (DMEM, Sigma Aldrich) at 37° C., 5% CO2 for 24 hours. Cells were then washed with PBS (Sigma Aldrich) and then subjected to the addition of either nutrient rich media (NRM) or nutrient deprived media (NDM). Serially diluted coumarin compounds (5.5% DMSO in NDM) were added to the cells followed by a 24-hour incubation at 37° C., 5% CO2. Cell morphology was then observed under an inverted microscope. Cells were then washed with PBS, and fresh DMEM and 10% WST-8 cell counting kit (Dojindo Molecular Technologies) were added for a 3-hour incubation at 37° C., 5% CO2. Absorbance values were measured with a plate reader at 450 nm, and cell viability was calculated using the equation % Cell viability=[{Abstest sample−Absblank}/{Abscontrol−Absblank}]*100. The cell viability of compounds 2, 3 and 4 (e.g., viability of cells following treatment with compounds 2, 3, or 4 was assessed) is shown in FIG. 1b, and is consistent with the results shown in FIG. 1a. LC50 values were determined and are as follows.

PANC-1 cells [3] = assay: In vitro cytotoxicity assay (WST-8 cell viability), nutrient rich media; type: cell-based
Procedure: as §1
as §2, with “Serially diluted coumarin compounds (5.5% DMSO in NDM) were added to the cells followed by a 24-hour incubation at 37° C., 5% CO2. Cell morphology was then observed under an inverted microscope. Cells were then washed with PBS, and fresh DMEM and 10% WST-8 cell counting kit (Dojindo Molecular Technologies) were added for a 3-hour incubation at 37° C., 5% CO2.” left out

PANC-1 cells [4] = assay: Morphological change observation under inverted microscope, nutrient-deprived conditions; type: cell-based; conditions: 6.25 μM, 12.5 μM, and 25 μM, 24 hour incubation
Procedure: as §1, with “Cells were then washed with PBS, and fresh DMEM and 10% WST-8 cell counting kit solution (Dojindo Molecular Technologies) were added to each well. The cells were incubated for 3-hours at 37° C. and 5% CO2.” left out, “The cell viability of compounds 2, 3 and 4 is seen in FIG. 1a.” left out
The assay detailed above was performed additional times and results were obtained. […] Absorbance values were measured with a plate reader at 450 nm, and cell viability was calculated using the equation % Cell viability=[{Abstest sample−Absblank}/{Abscontrol−Absblank}]*100. The cell viability of compounds 2, 3 and 4 (e.g., viability of cells following treatment with compounds 2, 3, or 4 was assessed) is shown in FIG. 1b, and is consistent with the results shown in FIG. 1a. LC50 values were determined and are as follows.

CC(C)(OC(=O)C=Cc1ccc(O)cc1)C1Cc2c(ccc3ccc(=O)oc23)O1 (centres unmarked) [Angelmarin, 11-O-(p-hydroxy-cinnamoyl) columbianetin]
cytotoxicity against PANC-1 under nutrient starvation conditions [1]: exhibit cytotoxicity

CC(C)=CCOc1ccc2oc(=O)ccc2c1 [Compound 2, 6-((3-methylbut-2-en-1-yl)oxy)-2H-chromen-2-one]
CC50 (PANC-1 cells [2]): > 100 µM
cytotoxicity towards PANC-1 cells under nutrient starvation conditions (PANC-1 cells [2]): preferential cytotoxicity
cytotoxic activity when cells cultured under nutrient-rich conditions (PANC-1 cells [3]): no significant cytotoxic activity

CC(C)=CCC/C(C)=C/COc1ccc2oc(=O)ccc2c1 [Compound 3, (E)-6-((3,7-dimethylocta-2,6-dien-1-yl)oxy)-2H-chromen-2-one]
CC50 (PANC-1 cells [2]): 12 µM
cytotoxicity towards PANC-1 cells under nutrient starvation conditions (PANC-1 cells [2]): preferential cytotoxicity
cytotoxic activity when cells cultured under nutrient-rich conditions (PANC-1 cells [3]): no significant cytotoxic activity

CC(C)=CCC/C(C)=C/CC/C(C)=C/COc1ccc2oc(=O)ccc2c1 [Compound 4, 6-(((2E,6E)-3,7,11-trimethyldodeca-2,6,10-trien-1-yl)oxy)-2H-chromen-2-one]
morphological changes to PANC-1 cells (PANC-1 cells [4]): induced apoptosis-like morphological changes
CC50 (PANC-1 cells [2]): 4 µM
cytotoxicity towards PANC-1 cells under nutrient starvation conditions (PANC-1 cells [2]): preferential cytotoxicity
cytotoxic activity when cells cultured under nutrient-rich conditions (PANC-1 cells [3]): no significant cytotoxic activity
